Experimental data from paper PMC3390344, “Antibacterial Activity and Mechanism of a Scorpion Venom Peptide Derivative In Vitro and In Vivo” (PLoS ONE, 2012).
Ends that are not written are not given here.

Columns and labels:
[1] = tested on: MRSA P1386; experiment: Growth inhibitory assay (growth curves); format: cell-based, S. aureus; conditions: measurements at 630 nm, 96-well plates; Figure 2B
Method: (§1) Figure 2 Gowth inhibitory activities of Kn2-7. (A) Growth curves of S. aureus AB94004 treated with Kn2-7, BmKn2 or antibiotics. (B) Growth curves of MRSA P1386 treated with Kn2-7, BmKn2 or antibiotics. (C) Growth curves of E. coli AB94012 treated with Kn2-7, BmKn2 or antibiotics.
(§2) The time growth curves of S. aureus and MRSA treated with BmKn2 or its derivatives were determined based on measurements taken at 630 nm at each time point. Different concentrations of peptide were added to the tested strains, which were cultured in 96-well plates using the same method as was used for determining the MIC.

[2] = tested on: S. aureus AB94004; format: cell-based; conditions: for MIC S.aureus, substance alone: controls of the competition assay (Figure 7C): untreated peptide, or LTA / LPS alone
Method: To confirm the results of the BLI titrations, 250 µg/mL of Kn2-7 or BmKn2 was mixed with an equal volume of 1 mg/mL LTA or LPS. Then, the MICs of Kn2-7 or BmKn2 mixed with LTA against S. aureus and E. coli were measured. […] The MICs of Kn2-7 and BmKn2 treated with LTA against S. aureus were 25 and 12.5 µg/mL, respectively.
A total of 250 µg/mL of each peptide solution was mixed with an equal volume of 1 mg/mL of the LTA or LPS solution. Then, the MICs of BmKn2 and Kn2-7 treated with LTA or LPS against S. aureus AB94004 and E. coli AB94012 were measured.

[3] = tested on: E. coli AB94012; experiment: Enzyme release assay (catalase); format: cell-based; conditions: E. coli AB94012, 37°C; 0.9% saline negative control; Figure 4D
Method: (§3) Figure 4 Secondary structure and enzyme release assay of Kn2-7. (A) and (B) Secondary structure analysis of the Kn2-7 and BmKn2 peptides. (A) Circular dichroism spectra of 0.1 mg/mL of Kn2-7 in water, 30% TFE/H2O or 70% TFE/H2O. (B) Circular dichroism spectra of 0.1 mg/mL of BmKn2 in water, 30% TFE/H2O or 70% TFE/H2O. (C) and (D) Enzyme release assay. (C) S. aureus AB94004 treated with Kn2-7 or BmKn2 was harvested, and the catalase activities of the supernatants were measured; 0.9% saline was used as the negative control, and ampicillin sodium was used as the antibiotic control. (D) E. coli AB94012 treated with Kn2-7 or BmKn2 was harvested, and the catalase activities in the supernatants were measured; 0.9% saline was used as the negative control, and kanamycin was used as the antibiotic control.
(§4) Bacterial suspensions and serial-diluted peptides were mixed at a ratio of 4∶1 in different tubes with a final volume of 2 ml. The mixtures were then incubated at 37°C with continuous shaking. At each time point, 200 µl of the treated bacterial suspension was transferred to sterilized tubes. After centrifugation, the supernatants were transferred to a sterilized 1.5-ml tube, and catalase activity was measured with a Catalase Assay Kit (Beyotime, Jiangsu, China) using the method for measuring peroxidase activity.

[4] = tested on: S. aureus AB94004; experiment: Enzyme release assay (catalase); format: cell-based; conditions: S. aureus AB94004, 37°C; 0.9% saline negative control; Figure 4C
Method: as §3, §4

[5] = tested on: E. coli AB94012; experiment: Growth inhibitory assay (growth curves); format: cell-based; conditions: at a concentration of 6.25 µg/mL; Figure 2C
Method: as §1, §2

[6] = tested on: S. aureus AB94004; experiment: Growth inhibitory assay (growth curves); format: cell-based; conditions: at a concentration of MICs; measurements at 630 nm, 96-well plates; Figure 2A
Method: as §1, §2

[7] = Biolayer interferometry; format: binding, S. aureus; conditions: 10 µg/mL biotinylated peptide on biosensor tips, 500 µg/mL LTA, 10 mM HEPES pH 7.4, 0.14 M NaCl, 30°C
Method: Figure 7 Binding assay of Kn2-7 and LTA or LPS. (A) Interaction of 10 µg/ml of Kn2-7 with 500 µg/ml of LPS or 500 µg/mL of LTA. Curve A3 is LPS, curve B3 is LTA and curve C3 is buffer. (B) Interaction of 10 µg/mL of BmKn2 with 500 µg/mL of LPS or 500 µg/mL of LTA. Curve D3 is LPS, curve E3 is LTA and curve F3 is the buffer. (C) MICs of Kn2-7 and BmKn2 treated with LTA or LPS against S. aureus and E. coli.
Biolayer Interferometry (BLI) experiments were performed on OCT RED (FortéBio, Inc.). A total of 500 µg/mL of lipoteichoic acid from S. aureus (LTA, Sigma, L2515), lipopolysaccharides from E. coli (LPS, Sigma, L2880) or buffer (10 mM HEPES, pH 7.4 and 0.14 M NaCl) was dispensed into 96-well microtiter plates at a volume of 200 µl per well. The operating temperature was 30°C. Biosensor tips (FortéBio, Inc., Menlo Park, CA) were pre-wetted with the buffer for 60 seconds at baseline. Then, 10 µg/mL Biotin-Kn2-7 or Biotin-BmKn2 was loaded onto the biosensor tips for 900 seconds. Baseline 2 was subsequently established for 300 seconds. Dissociation of Kn2-7 or BmKn2 occurred for 900 seconds in the buffer. Data were generated automatically by the Octet® User Software (version 3.1) and were subsequently analyzed from the resultant text files using Excel 2000.

[8] = tested on: E. coli AB94012; experiment: Bactericidal assay (time-killing); format: cell-based; conditions: samples at 0, 5, 15, 30, 60 min, colony counts, average of three dishes
Method: Figure 5 Bactericidal assays of the Kn2-7 and BmKn2 peptides against S. aureus and E. coli AB94012. Set point indicates untreated bacteria, and 0 minutes was defined as the time of the first sample collection, which was immediately after mixing bacteria and Kn2-7 or BmKn2. The other samples were collected at 5 min, 15 min, 30 min or 60 min. All of the counts were the average of three dishes, and the experiment was repeated at least three times. (A) Time-killing curve of Kn2-7 against S. aureus AB94004. (B) Time-killing curve of BmKn2 against S. aureus AB94004. (C) Time-killing curve of Kn2-7 against E. coli AB94012.
Bactericidal curves for Kn2-7 and BmKn2 were determined against S. aureus AB94004 and E. coli AB94012. A 400 µl aliquot of the peptide solution was added to 1,600 µl of a bacterial suspension. At each time point, 200 µl of the treated bacterial suspension was transferred to a sterilized 1.5-ml tube. After centrifugation at 1,000×g for 5 min, the supernatant was removed, and the pellet was resuspended in 200 µl of LB medium. The bacterial suspensions were placed on agar plates and incubated at 37°C until viable colonies could be counted.

Substance | Growth inhibition of MRSA P1386 (growth curve) [1] | MIC S.aureus, peptide treated with LPS ([2]; 250 µg/mL peptide mixed with equal volume of 1 mg/mL LPS) [µg/mL] | MIC S.aureus, peptide treated with LTA ([2]; 250 µg/mL peptide mixed with equal volume of 1 mg/mL LTA) [µg/mL] | MIC S.aureus, substance alone [2] [µg/mL] | Catalase activity of the supernatant over time [3] | Catalase activity of the supernatant over time [4] | Growth inhibition of E. coli AB94012 (growth curve) [5] | Growth inhibition of S. aureus (growth curve) [6] | Binding to LTA (BLI) [7] | Bactericidal effect (time-killing curve) [8]
FIGAIARLLSKIF-NH2 [BmKn2] | inhibited the growth of MRSA P1386 completely | 6.25 | 12.5 | 6.25 | low catalase activity at each time point | almost the same catalase activity at each time point | had no effect against E. coli AB94012 | inhibited the growth of S. aureus completely | bound strongly | not able to kill E. coli AB94012
FIKRIARLLRKIF [Kn2-7] | inhibited the growth of MRSA P1386 completely | – | – | 3.13 | nearly the same high enzymatic activity at each time point | almost the same catalase activity at each time point | inhibited the growth of E. coli AB94012 | inhibited the growth of S. aureus completely | bound strongly | able to kill E. coli AB94012 rapidly
